Results published in patent US10174037B2, “Dihydropyrazolopyrimidinone compounds as PDE2 inhibitors” (Merck Sharp & Dohme Corp., priority 2015, dated 2019).
Where two headings read alike, the source gives them in different places. Values belong to the compound of their own block, whether it stands above or below them.

Experiments:
Rhesus PDE2A3 = Rhesus PDE2A3 (Macaca mulatta, UniProt B3VTJ2); experiment: PDE2 fluorescence polarization (IMAP FP) assay, rhesus PDE2A3; type: biochemical, rhesus macaque
Sequence of Rhesus PDE2A3 (B3VTJ2 1-941): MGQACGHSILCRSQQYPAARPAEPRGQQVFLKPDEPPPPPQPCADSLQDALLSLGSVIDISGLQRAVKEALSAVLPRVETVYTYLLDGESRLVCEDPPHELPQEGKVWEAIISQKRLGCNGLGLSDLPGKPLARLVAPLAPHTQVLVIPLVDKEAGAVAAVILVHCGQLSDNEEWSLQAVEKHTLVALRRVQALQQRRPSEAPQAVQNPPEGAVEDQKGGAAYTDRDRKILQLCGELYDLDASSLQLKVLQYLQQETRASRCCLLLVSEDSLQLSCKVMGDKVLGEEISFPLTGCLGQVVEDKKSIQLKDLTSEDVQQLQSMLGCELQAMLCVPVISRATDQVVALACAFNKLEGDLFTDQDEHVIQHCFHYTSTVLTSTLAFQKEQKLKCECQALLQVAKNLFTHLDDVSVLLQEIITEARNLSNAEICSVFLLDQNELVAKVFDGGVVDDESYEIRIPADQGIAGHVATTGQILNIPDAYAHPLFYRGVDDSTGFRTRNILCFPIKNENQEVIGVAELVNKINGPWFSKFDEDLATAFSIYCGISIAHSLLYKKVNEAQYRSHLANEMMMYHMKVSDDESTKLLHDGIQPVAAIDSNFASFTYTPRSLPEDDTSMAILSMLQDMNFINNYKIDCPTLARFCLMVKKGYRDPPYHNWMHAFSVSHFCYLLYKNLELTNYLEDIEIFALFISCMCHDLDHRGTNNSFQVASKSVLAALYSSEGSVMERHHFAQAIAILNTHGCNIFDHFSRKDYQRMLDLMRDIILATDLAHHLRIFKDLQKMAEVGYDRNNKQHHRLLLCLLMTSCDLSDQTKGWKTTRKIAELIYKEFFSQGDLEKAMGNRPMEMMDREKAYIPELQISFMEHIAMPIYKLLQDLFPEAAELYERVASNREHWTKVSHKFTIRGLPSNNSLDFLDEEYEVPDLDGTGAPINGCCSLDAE

human PDE2A1 = human PDE2A1 (Homo sapiens (Human), UniProt O00408); experiment: PDE selectivity IMAP FP assay, human PDE2A1; type: biochemical; details: Human PDE2
Sequence of human PDE2A1 (O00408 other isoform, or with tags, fused parts or gaps): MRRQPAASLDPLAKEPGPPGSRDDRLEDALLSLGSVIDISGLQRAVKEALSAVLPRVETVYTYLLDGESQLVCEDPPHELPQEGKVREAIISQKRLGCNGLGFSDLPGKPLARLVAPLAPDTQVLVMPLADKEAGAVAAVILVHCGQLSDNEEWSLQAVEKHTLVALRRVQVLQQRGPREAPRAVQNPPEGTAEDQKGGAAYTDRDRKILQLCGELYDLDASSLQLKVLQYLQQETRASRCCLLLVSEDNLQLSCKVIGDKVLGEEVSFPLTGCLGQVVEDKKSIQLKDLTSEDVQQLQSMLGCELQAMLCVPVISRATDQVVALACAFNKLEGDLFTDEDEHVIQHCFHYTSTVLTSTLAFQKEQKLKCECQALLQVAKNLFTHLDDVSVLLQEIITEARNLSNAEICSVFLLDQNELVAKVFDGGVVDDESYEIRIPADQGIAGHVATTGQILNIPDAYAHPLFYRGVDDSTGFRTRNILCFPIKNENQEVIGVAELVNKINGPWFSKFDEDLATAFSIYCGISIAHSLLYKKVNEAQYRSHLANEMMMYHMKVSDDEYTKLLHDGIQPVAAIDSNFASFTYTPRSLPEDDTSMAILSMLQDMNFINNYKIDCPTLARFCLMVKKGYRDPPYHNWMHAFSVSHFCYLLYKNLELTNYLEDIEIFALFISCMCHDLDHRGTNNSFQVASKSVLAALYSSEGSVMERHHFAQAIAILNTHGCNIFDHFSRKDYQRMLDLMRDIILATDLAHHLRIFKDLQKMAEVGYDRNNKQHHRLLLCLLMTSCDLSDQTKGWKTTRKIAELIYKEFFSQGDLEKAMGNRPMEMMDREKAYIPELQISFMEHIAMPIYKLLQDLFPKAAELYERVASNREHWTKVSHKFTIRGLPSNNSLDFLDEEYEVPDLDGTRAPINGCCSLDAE
Method in brief: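 IMAP fluorescence polarization assay; PDE2 substrate 50 nM FAM-cAMP containing 1000 nM cGMP, enzyme diluted for 20% substrate conversion, in 10 mM Tris HCl pH 7.2, 10 mM MgCl2, 1 mM DTT. Reaction 60 min at room temperature, stopped with IMAP binding solution; polarization read after 1 h. Ki reported.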

[1] = Lab B, read-out: Rhesus PDE2 Ki (nM) Lab B
[2] = Lab B, read-out: Human PDE2 Ki (nM) Lab B

SMILES: CCC(c1ccc(C(C)(F)F)c(F)c1)n1nc(CO)c2c(=O)[nH]c(N(C)C)nc21 (single isomer, unassigned) [Example 113]
Ki (Rhesus PDE2A3; [1]): 0.055 nM | Ki (human PDE2A1; [2]): 0.057 nM

SMILES: CC(C)C(c1ccc(C(F)(F)F)cc1)n1nc(C(F)F)c2c(=O)[nH]c(O)nc21 (single isomer, unassigned) [Example 281, (R)- or (S)-3-(Difluoromethyl)-6-hydroxy-1-(2-methyl-1-(4-(trifluoromethyl)phenyl)propyl)-1H-pyrazolo[3,4-d]pyrimidin-4(5H)-one]
Ki (Rhesus PDE2A3; [1]): 1.2 nM | Ki (human PDE2A1; [2]): 1.3 nM

SMILES: CN(C)c1nc2c(c(CO)nn2C(c2ccc(C(F)(F)F)cc2F)C2CC2)c(=O)[nH]1 (single isomer, unassigned) [Example 134, (R)- or (S)-1-(Cyclopropyl(2-fluoro-4-(trifluoromethyl)phenyl)methyl)-6-(dimethylamino)-3-(hydroxymethyl)-1H-pyrazolo[3,4-d]pyrimidin-4(5H)-one]
Ki (Rhesus PDE2A3; [1]): 0.05 nM | Ki (human PDE2A1; [2]): 0.047 nM

SMILES: C[C@@H](c1ccc(C(F)(F)F)cc1)n1nc(CO)c2c(=O)[nH]c(N3CCCC3)nc21 [Example 156, 3-(Hydroxymethyl)-6-pyrrolidin-1-yl-1-{(1S)-1-[4-(trifluoromethyl)phenyl]ethyl}-1,5-dihydro-4H-pyrazolo[3,4-d]pyrimidin-4-one]
Ki (Rhesus PDE2A3; [1]): 0.47 nM | Ki (human PDE2A1; [2]): 0.5 nM

SMILES: CCC(c1ccc(C(C)(F)F)c(F)c1)n1nc(CO)c2c(=O)[nH]c(N(C)C)nc21 (single isomer, unassigned) [Example 112, (R)- or (S)-1-(1-(4-(1,1-Difluoroethyl)-3-fluorophenyl)propyl)-6-(dimethylamino)-3-(hydroxymethyl)-1H-pyrazolo[3,4-d]pyrimidin-4(5H)-one]
Ki (Rhesus PDE2A3; [1]): 1.1 nM | Ki (human PDE2A1; [2]): 0.84 nM

SMILES: CC(C)C(c1ccc(C(F)(F)F)c(F)c1)n1nc(CF)c2c(=O)[nH]c(N(C)C)nc21 (single isomer, unassigned) [Example 221, (S)- or (R)-6-Dimethylamino)-1-(1-(3-fluoro-4-trifluoromethyl)phenyl)-2-methylpropyl)-3-(fluoromethyl)-1H-pyrazolo[3,4-d]pyrimidin-4(5H)-one]
Ki (Rhesus PDE2A3; [1]): 0.067 nM | Ki (human PDE2A1; [2]): 0.046 nM

SMILES: CC(c1ccc(OC(F)(F)F)c(F)c1)n1nc(CC(F)(F)F)c2c(=O)[nH]c(O)nc21 (racemic) [Example 229, 1-(1-(3-Fluoro-4-(trifluoromethoxy)phenyl)ethyl)-6-hydroxy-3-(2,2,2-trifluoroethyl)-1H-pyrazolo[3,4-d]pyrimidin-4(5H)-one]
Ki (Rhesus PDE2A3; [1]): 13 nM | Ki (human PDE2A1; [2]): 9.6 nM

SMILES: Cc1nn(C(C)c2ccc(OC(F)(F)F)cc2)c2nc(O)[nH]c(=O)c12 (stereo not shown) [Example 60, 6-Hydroxy-3-methyl-1-{1-[4-(trifluoromethoxy)phenyl]ethyl}-1,5-dihydro-4H-pyrazolo[3,4-d]pyrimidin-4-one]
Ki (Rhesus PDE2A3; Lab A, read-out: Rhesus PDE2 Ki (nM) Lab A): 278 nM | Ki (human PDE2A1; Lab A, read-out: Human PDE2 Ki (nM) Lab A): 207 nM

SMILES: CC1(C(c2ccc(C(F)(F)F)cc2)n2nc(CC(F)(F)F)c3c(=O)[nH]c(O)nc32)CC1 (single isomer, unassigned) [Example 244, (R)- or (S)-6-Hydroxy-1-((1-methylcyclopropyl)(4-(trifluoromethyl)phenyl)methyl)-3-(2,2,2-trifluoroethyl)-1H-pyrazolo[3,4-d]pyrimidin-4(5H)-one]
Ki (Rhesus PDE2A3; [1]): 21 nM | Ki (human PDE2A1; [2]): 21 nM

SMILES: CN(C)c1nc2c(c(CF)nn2C(c2ccc(OC(F)F)c(F)c2)C2CC2)c(=O)[nH]1 (single isomer, unassigned) [Example 188, (R)- or (S)-1-(Cyclopropyl(4-(difluoromethoxy)-3-fluorophenyl)methyl)-6-(dimethylamino)-3-(fluoromethyl)-1H-pyrazolo[3,4-d]pyrimidin-4(5H)-one]
Ki (Rhesus PDE2A3; [1]): 0.41 nM | Ki (human PDE2A1; [2]): 0.35 nM

SMILES: CC(C)C(c1ccc(C(F)(F)F)c(F)c1)n1nc(CF)c2c(=O)[nH]c(O)nc21 (single isomer, unassigned) [Example 56]
Ki (Rhesus PDE2A3; [1]): 36 nM | Ki (human PDE2A1; [2]): 37 nM

The next lines start with the values.

Ki (Rhesus PDE2A3; [1]): 0.42 nM | Ki (human PDE2A1; [2]): 0.41 nM
SMILES: CN(C)c1nc2c(c(CF)nn2C(c2ccc(CC(F)(F)F)cc2)C2CC2)c(=O)[nH]1 (single isomer, unassigned) [Example 192, (R)- or (S)-1-(Cyclopropyl(4-(2,2,2-trifluoroethyl)phenyl)methyl)-6-(dimethylamino)-3-(fluoromethyl)-1H-pyrazolo[3,4-d]pyrimidin-4(5H)-one]

Ki (Rhesus PDE2A3; [1]): 0.55 nM | Ki (human PDE2A1; [2]): 0.5 nM
SMILES: CN(C)c1nc2c(c(CO)nn2C(c2ccc(OC(F)F)cc2)C2CC2)c(=O)[nH]1 (single isomer, unassigned) [Example 128, (R)- or (S)-1-(Cyclopropyl(4-(difluoromethoxy)phenyl)methyl)-6-(dimethylamino)-3-(hydroxymethyl)-1H-pyrazolo[3,4-d]pyrimidin-4(5H)-one]

Ki (Rhesus PDE2A3; [1]): 0.28 nM | Ki (human PDE2A1; [2]): 0.23 nM
SMILES: CC(C)c1ccc(C(C(C)C)n2nc(CF)c3c(=O)[nH]c(N(C)C)nc32)cc1 (single isomer, unassigned) [Example 176, (R)- or (S)-6-(Dimethylamino)-3-(fluoromethyl)-1-(1-(4-isopropylphenyl)-2-methylpropyl)-1H-pyrazolo[3,4-d]pyrimidin-4(5H)-one]

Ki (Rhesus PDE2A3; [1]): 0.28 nM | Ki (human PDE2A1; [2]): 0.33 nM
SMILES: CC(c1ccc(OC(F)(F)F)cc1)n1nc(CF)c2c(=O)[nH]c(N(C)C)nc21 (single isomer, unassigned) [Example 165, (S)- or (R)-6-(Dimethylamino)-3-(fluoromethyl)-1-(1-(4-(trifluoromethoxy)phenyl)ethyl)-1H-pyrazolo[3,4-d]pyrimidin-4(5H)-one]

Ki (Rhesus PDE2A3; [1]): 0.4 nM | Ki (human PDE2A1; [2]): 0.38 nM
SMILES: CN(C)c1nc2c(c(CO)nn2C(c2ccc(CC(F)(F)F)cc2)C2CC2)c(=O)[nH]1 (single isomer, unassigned) [Example 87, (S)- or (R)-1-(Cyclopropyl(4-(2,2,2-trifluoroethyl)phenyl)methyl)-6-(dimethylainino)-3-(hydroxymethyl)-1H-pyrazolo[3,4-d]pyrimidin-4(5H)-one]

Ki (Rhesus PDE2A3; [1]): 0.97 nM | Ki (human PDE2A1; [2]): 0.57 nM
SMILES: CN(C)c1nc2c(c(CO)nn2C(c2ccc(C(F)F)c(F)c2)C2CC2)c(=O)[nH]1 (single isomer, unassigned) [Example 152, (R)- or (S)-1-(Cyclopropyl(4-(difluoromethyl)-3-fluorophenyl)methyl)-6-(dimethylamino)-3-(hydroxymethyl)-1H-pyrazolo[3,4-d]pyrimidin-4(5H)-one]

Ki (Rhesus PDE2A3; [1]): 1.1 nM | Ki (human PDE2A1; [2]): 0.86 nM
SMILES: CC(c1ccc(C(F)F)cc1)n1nc(CO)c2c(=O)[nH]c(N(C)C)nc21 (single isomer, unassigned) [Example 83, (S)- or (R)-1-(1-(4-(Difluoromethyl)phenyl)ethyl)-6-(dimethylamino)-3-(hydroxymethyl)-1H-pyrazolo[3,4-d]pyrimidin-4(5H)-one]

Ki (Rhesus PDE2A3; [1]): 0.14 nM | Ki (human PDE2A1; [2]): 0.13 nM
SMILES: CC(c1ccc(C(F)(F)F)cc1F)n1nc(CF)c2c(=O)[nH]c(N(C)C)nc21 (single isomer, unassigned) [Example 186, (R)- or (S)-6-(Dimethylamino)-1-(1-(2-fluoro-4-(trifluoromethyl)phenyl)ethyl)-3-(fluoromethyl)-1H-pyrazolo[3,4-d]pyrimidin-4(5H)-one]

Ki (Rhesus PDE2A3; [1]): 0.41 nM | Ki (human PDE2A1; [2]): 0.39 nM
SMILES: CN(C)c1nc2c(c(CF)nn2C(c2ccc(CC(F)(F)F)cc2)C2CC2)c(=O)[nH]1 (single isomer, unassigned) [Example 193, (S)- or (R)-1-(Cyclopropyl(4-(2,2.2-trifluoroethyl)phenyl)methyl)-6-(dimethylamino)-3-(fluoromethyl)-1H-pyrazolo[3,4-d]pyrimidin-4(5H)-one]

Ki (Rhesus PDE2A3; [1]): 0.11 nM | Ki (human PDE2A1; [2]): 0.09 nM
SMILES: CCC(c1ccc(CC(F)(F)F)c(F)c1)n1nc(CO)c2c(=O)[nH]c(N(C)C)nc21 (single isomer, unassigned) [Example 97, (S)- or (R)-6-(Dimethylamino)-1-(1-(3-fluoro-4-(2,2,2-trifluoroethyl)phenyl)propyl)-3-(hydroxymethyl)-1H-pyrazolo[3,4-d]pyrimidin-4(5H)-one]

Ki (Rhesus PDE2A3; [1]): 9.2 nM | Ki (human PDE2A1; [2]): 8.3 nM
SMILES: CC(C)C(c1ccc(C(F)(F)F)cc1)n1nc(CO)c2c(=O)[nH]c(O)nc21 (single isomer, unassigned) [Example 13, (S)- or (R)-6-Hydroxy-3-(hydroxymethyl)-1-(2-methyl-1-(4-(trifluoromethyl)phenyl)propyl)-1H-pyazolo[3,4-d]pyrimidin-4(5H)-one]

Ki (Rhesus PDE2A3; [1]): 8.1 nM | Ki (human PDE2A1; [2]): 5.3 nM
SMILES: CC(c1ccc(C(F)(F)F)c(F)c1)n1nc(CF)c2c(=O)[nH]c(N(C)C)nc21 (single isomer, unassigned) [Example 168, (R)- or (S)-6-(Dimethylamino)-1-(1-(3-fluoro-4-(trifluoromethyl)phenyl)ethyl)-3-(fluoromethyl)-1H-pyrazolo[3,4-d]pyrimidin-4(5H)-one]

Ki (Rhesus PDE2A3; [1]): 0.058 nM | Ki (human PDE2A1; [2]): 0.047 nM
SMILES: CC(C)c1ccc(C(C(C)C)n2nc(CF)c3c(=O)[nH]c(N(C)C)nc32)cc1 (single isomer, unassigned) [Example 177, (S)- or (R)-6-(Dimethylamino)-3-(fluoromethyl)-1-(1-(4-isopropylphenyl)-2-methylpropyl)-1H-pyrazolo[3,4-d]pyrimidin-4(5H)-one]

Ki (Rhesus PDE2A3; [1]): 12 nM | Ki (human PDE2A1; [2]): 6.1 nM
SMILES: CC(c1ccc(C(C)(C)C)cc1)n1nc(CO)c2c(=O)[nH]c(N(C)C)nc21 (single isomer, unassigned) [Example 66, (R)- or (S)-1-(1-(4-tert-Butylphenyl)ethyl)-6-(dimethylamino)-3-(hydroxymethyl)-1H-pyrazolo[3,4-d]pyrimidin-4(5H)-one]

Ki (Rhesus PDE2A3; [1]): 0.55 nM | Ki (human PDE2A1; [2]): 0.42 nM
SMILES: CCC(c1ccc(C(F)F)cc1)n1nc(CO)c2c(=O)[nH]c(N(C)C)nc21 (single isomer, unassigned) [Example 93, (S)- or (R)-1-(1-(4-(Difluoromethyl)phenyl)propyl)-6-(dimethylamino)-3-(hydroxymethyl)-1H-pyrazolo[3,4-d]pyrimidin-4(5H)-one]
